Reference: US20050197364A1, “Amide compounds as ion channel ligands and uses thereof” (priority 2003, published 2005)

What follows are molecules tested on VR1 receptor (assay: High throughput calcium imaging assay (Fura2, Flex Station) of VR1 antagonists, pH 5.1 stimulus). Conditions: 1 uM compound; inhibition of calcium ion influx induced by capsaicin stimulation.
Format: cell-based

**Q.** For `COc1cc(C(=O)Nc2cccc(Cl)c2)ccc1-c1ncccc1Cl` [Compound 193], which “% Inhibition @ 1 uM” value is on record?
**A.** + (compound exhibited 0-25% inhibition of calcium ion influx induced by capsaicin stimulation)

**Q.** How did the “% Inhibition @ 1 uM” value turn out when `COc1ccccc1NC(=O)c1ccc(-c2ncccc2Cl)c(OC)c1` [Compound 194] was run?
**A.** + + (compound exhibited 25-50% inhibition of calcium ion influx induced by capsaicin stimulation)

**Q.** For `CCCc1ccccc1NC(=O)c1ccc(-c2ncccc2Cl)c(OC)c1` [Compound 195], which “% Inhibition @ 1 uM” value is on record?
**A.** + + (compound exhibited 25-50% inhibition of calcium ion influx induced by capsaicin stimulation)

**Q.** How did the “% Inhibition @ 1 uM” value turn out when `COc1cccc(NC(=O)c2ccc(-c3ncccc3Cl)c(OC)c2)c1` [Compound 196] was run?
**A.** + + (compound exhibited 25-50% inhibition of calcium ion influx induced by capsaicin stimulation)

**Q.** With `COc1cc(C(=O)Nc2cccc(Cl)c2Cl)ccc1-c1ncccc1Cl` [Compound 199] as the molecule, how does the “% Inhibition @ 1 uM” value read?
**A.** + + + + (“+ + + +” compound exhibited 75% or greater inhibition of calcium ion influx induced by capsaicin stimulation.)

**Q.** How did the “% Inhibition @ 1 uM” value turn out when `COc1cc(C(=O)Nc2cccc(C#N)c2)ccc1-c1ncccc1Cl` [Compound 201] was run?
**A.** + + + + (“+ + + +” compound exhibited 75% or greater inhibition of calcium ion influx induced by capsaicin stimulation.)

**Q.** `CCCCc1ccc(NC(=O)c2ccc(-c3ncccc3Cl)c(OC)c2)cc1` [Compound 204] was tested. Which “% Inhibition @ 1 uM” value did it give?
**A.** + + (“+ +” compound exhibited 25-50% inhibition of calcium ion influx induced by capsaicin stimulation.)

**Q.** How did the “% Inhibition @ 1 uM” value turn out when `COc1cc(C(=O)Nc2ccc(C)cc2C)ccc1-c1ncccc1Cl` [Compound 206] was run?
**A.** + + + + (“+ + + +” compound exhibited 75% or greater inhibition of calcium ion influx induced by capsaicin stimulation.)

**Q.** With `COc1cc(C(=O)Nc2ccc(F)cc2[N+](=O)[O-])ccc1-c1ncccc1Cl` [Compound 210] as the molecule, how does the “% Inhibition @ 1 uM” value read?
**A.** + + + + (“+ + + +” compound exhibited 75% or greater inhibition of calcium ion influx induced by capsaicin stimulation.)

**Q.** How did the “% Inhibition @ 1 uM” value turn out when `COc1ccc(NC(=O)c2ccc(-c3ncccc3Cl)c(OC)c2)cc1Cl` [Compound 212] was run?
**A.** + + + (“+ + +” compound exhibited 50-75% inhibition of calcium ion influx induced by capsaicin stimulation.)

**Q.** With `COc1cc(C(=O)Nc2ccc(C(F)(F)F)cc2)ccc1-c1ncccc1Cl` [Compound 213] as the molecule, how does the “% Inhibition @ 1 uM” value read?
**A.** + + (“+ +” compound exhibited 25-50% inhibition of calcium ion influx induced by capsaicin stimulation.)

**Q.** For `COc1cc(C(=O)Nc2ccc(Cl)c(C(F)(F)F)c2)ccc1-c1ncccc1Cl` [Compound 214], which “% Inhibition @ 1 uM” value is on record?
**A.** + (“+” compound exhibited 0-25% inhibition of calcium ion influx induced by capsaicin stimulation.)

**Q.** Which “% Inhibition @ 1 uM” value does the source give for `COc1cc(C(=O)Nc2cc(C)cc(C)n2)ccc1-c1ncccc1Cl` [Compound 217] here?
**A.** + (“+” compound exhibited 0-25% inhibition of calcium ion influx induced by capsaicin stimulation.)

**Q.** `COc1cc(C(=O)Nc2ccncc2)ccc1-c1ncccc1Cl` [Compound 218] was tested. Which “% Inhibition @ 1 uM” value did it give?
**A.** + + + + (“+ + + +” compound exhibited 75% or greater inhibition of calcium ion influx induced by capsaicin stimulation.)

**Q.** With `COc1cc(C(=O)Nc2cccnc2)ccc1-c1ncccc1Cl` [Compound 219] as the molecule, how does the “% Inhibition @ 1 uM” value read?
**A.** + (“+” compound exhibited 0-25% inhibition of calcium ion influx induced by capsaicin stimulation.)

**Q.** How did the “% Inhibition @ 1 uM” value turn out when `COc1cc(C(=O)Nc2cc(C)ccn2)ccc1-c1ncccc1Cl` [Compound 223] was run?
**A.** + + + + (“+ + + +” compound exhibited 75% or greater inhibition of calcium ion influx induced by capsaicin stimulation.)

**Q.** `COc1cc(C(=O)Nc2ccncn2)ccc1-c1ncccc1Cl` [Compound 225] was tested. Which “% Inhibition @ 1 uM” value did it give?
**A.** + + (“+ +” compound exhibited 25-50% inhibition of calcium ion influx induced by capsaicin stimulation.)

**Q.** Which “% Inhibition @ 1 uM” value does the source give for `COc1cc(C(=O)Nc2ccc(Br)cn2)ccc1-c1ncccc1Cl` [Compound 226] here?
**A.** + (“+” compound exhibited 0-25% inhibition of calcium ion influx induced by capsaicin stimulation.)

**Q.** Which “% Inhibition @ 1 uM” value does the source give for `COc1ccc(NC(=O)c2ccc(-c3ncccc3Cl)c(OC)c2)cn1` [Compound 230] here?
**A.** + + (“+ +” compound exhibited 25-50% inhibition of calcium ion influx induced by capsaicin stimulation.)

**Q.** How did the “% Inhibition @ 1 uM” value turn out when `COc1cc(C(=O)Nc2ccnc(Cl)c2)ccc1-c1ncccc1Cl` [Compound 231] was run?
**A.** + (“+” compound exhibited 0-25% inhibition of calcium ion influx induced by capsaicin stimulation.)

**Q.** Which “% Inhibition @ 1 uM” value does the source give for `COc1cc(C(=O)Nc2cc(C)nc(C)n2)ccc1-c1ncccc1Cl` [Compound 232] here?
**A.** + (“+” compound exhibited 0-25% inhibition of calcium ion influx induced by capsaicin stimulation.)

**Q.** Which “% Inhibition @ 1 uM” value does the source give for `COc1cc(C(=O)Nc2ccc3ncccc3c2)ccc1-c1ncccc1Cl` [Compound 233] here?
**A.** + + + + (“+ + + +” compound exhibited 75% or greater inhibition of calcium ion influx induced by capsaicin stimulation.)

**Q.** For `CCn1c2ccccc2c2cc(NC(=O)c3ccc(-c4ncccc4Cl)c(OC)c3)ccc21` [Compound 234], which “% Inhibition @ 1 uM” value is on record?
**A.** + (“+” compound exhibited 0-25% inhibition of calcium ion influx induced by capsaicin stimulation.)

**Q.** `COc1cc(C(=O)Nc2nccs2)ccc1-c1ncccc1Cl` [Compound 235] was tested. Which “% Inhibition @ 1 uM” value did it give?
**A.** + (“+” compound exhibited 0-25% inhibition of calcium ion influx induced by capsaicin stimulation.)

**Q.** With `COc1cc(C(=O)Nc2ccc3ccccc3c2)ccc1-c1ncccc1Cl` [Compound 236] as the molecule, how does the “% Inhibition @ 1 uM” value read?
**A.** + + + + (“+ + + +” compound exhibited 75% or greater inhibition of calcium ion influx induced by capsaicin stimulation.)

**Q.** `COc1ccc(NC(=O)c2ccc(-c3ncccc3Cl)c(OC)c2)cc1OC` [Compound 240] was tested. Which “% Inhibition @ 1 uM” value did it give?
**A.** + (“+” compound exhibited 0-25% inhibition of calcium ion influx induced by capsaicin stimulation.)

**Q.** `COc1cc(C(=O)Nc2cccc(C(=O)O)c2)ccc1-c1ncccc1Cl` [Compound 241] was tested. Which “% Inhibition @ 1 uM” value did it give?
**A.** + (“+” compound exhibited 0-25% inhibition of calcium ion influx induced by capsaicin stimulation.)

**Q.** With `COc1cc(C(=O)Nc2ccc(Cl)c(C(=O)O)c2)ccc1-c1ncccc1Cl` [Compound 242] as the molecule, how does the “% Inhibition @ 1 uM” value read?
**A.** + + + + (“+ + + +” compound exhibited 75% or greater inhibition of calcium ion influx induced by capsaicin stimulation.)

**Q.** With `COc1cc(C(=O)Nc2cc(OC)c(OC)c(OC)c2)ccc1-c1ncccc1Cl` [Compound 246] as the molecule, how does the “% Inhibition @ 1 uM” value read?
**A.** + + + + (“+ + + +” compound exhibited 75% or greater inhibition of calcium ion influx induced by capsaicin stimulation.)

**Q.** With `COc1cc(C(=O)Nc2ccc3cn[nH]c3c2)ccc1-c1ncccc1Cl` [Compound 247] as the molecule, how does the “% Inhibition @ 1 uM” value read?
**A.** + + (“+ +” compound exhibited 25-50% inhibition of calcium ion influx induced by capsaicin stimulation.)

**Q.** Which “% Inhibition @ 1 uM” value does the source give for `COc1cc(C(=O)Nc2ccc(C#N)c(Cl)c2)ccc1-c1ncccc1Cl` [Compound 248] here?
**A.** + + + + (“+ + + +” compound exhibited 75% or greater inhibition of calcium ion influx induced by capsaicin stimulation.)

**Q.** With `COc1cc(C(=O)Nc2cccc(C(F)(F)F)c2)ccc1-c1ncccc1Cl` [Compound 250] as the molecule, how does the “% Inhibition @ 1 uM” value read?
**A.** + + (“+ +” compound exhibited 25-50% inhibition of calcium ion influx induced by capsaicin stimulation.)

**Q.** For `COc1cc(C(=O)Nc2cccc(OC(F)(F)F)c2)ccc1-c1ncccc1Cl` [Compound 252], which “% Inhibition @ 1 uM” value is on record?
**A.** + (“+” compound exhibited 0-25% inhibition of calcium ion influx induced by capsaicin stimulation.)

**Q.** How did the “% Inhibition @ 1 uM” value turn out when `COc1cc(C(=O)Nc2cccc(OC(C)C)c2)ccc1-c1ncccc1Cl` [Compound 253] was run?
**A.** + (“+” compound exhibited 0-25% inhibition of calcium ion influx induced by capsaicin stimulation.)

**Q.** With `COc1cc(C(=O)Nc2ccc(F)c(F)c2)ccc1-c1ncccc1Cl` [Compound 254] as the molecule, how does the “% Inhibition @ 1 uM” value read?
**A.** + + + (“+ + +” compound exhibited 50-75% inhibition of calcium ion influx induced by capsaicin stimulation.)

**Q.** With `CCOc1ccc(NC(=O)c2ccc(-c3ncccc3Cl)c(OC)c2)cc1` [Compound 256] as the molecule, how does the “% Inhibition @ 1 uM” value read?
**A.** + (“+” compound exhibited 0-25% inhibition of calcium ion influx induced by capsaicin stimulation.)

**Q.** Which “% Inhibition @ 1 uM” value does the source give for `COc1cc(C(=O)Nc2ccc(OC)c(C(F)(F)F)c2)ccc1-c1ncccc1Cl` [Compound 258] here?
**A.** + + (“+ +” compound exhibited 25-50% inhibition of calcium ion influx induced by capsaicin stimulation.)

**Q.** `COc1cc(C(=O)Nc2ccc(N3CCNCC3)c(Cl)c2)ccc1-c1ncccc1Cl` [Compound 259] was tested. Which “% Inhibition @ 1 uM” value did it give?
**A.** + (“+” compound exhibited 0-25% inhibition of calcium ion influx induced by capsaicin stimulation.)

**Q.** With `COc1cc(C(=O)Nc2ccc(-c3cnc[nH]3)cc2)ccc1-c1ncccc1Cl` [Compound 260] as the molecule, how does the “% Inhibition @ 1 uM” value read?
**A.** + + + (“+ + +” compound exhibited 50-75% inhibition of calcium ion influx induced by capsaicin stimulation.)

**Q.** For `COc1cc(C(=O)Nc2ccc(Cl)cc2S(=O)(=O)O)ccc1-c1ncccc1Cl` [Compound 261], which “% Inhibition @ 1 uM” value is on record?
**A.** + (“+” compound exhibited 0-25% inhibition of calcium ion influx induced by capsaicin stimulation.)

**Q.** For `CCN(CC)CCOC(=O)c1ccc(NC(=O)c2ccc(-c3ncccc3Cl)cc2)cc1` [Compound 265], which “% Inhibition @ 1 uM” value is on record?
**A.** + (“+” compound exhibited 0-25% inhibition of calcium ion influx induced by capsaicin stimulation.)

**Q.** Which “% Inhibition @ 1 uM” value does the source give for `CCOC(=O)c1cccc(NC(=O)c2ccc(-c3ncccc3Cl)cc2)c1` [Compound 269] here?
**A.** + (“+” compound exhibited 0-25% inhibition of calcium ion influx induced by capsaicin stimulation.)

**Q.** How did the “% Inhibition @ 1 uM” value turn out when `COc1ccc(NC(=O)c2ccc(-c3ncccc3Cl)cc2)cc1O` [Compound 271] was run?
**A.** + (“+” compound exhibited 0-25% inhibition of calcium ion influx induced by capsaicin stimulation.)

**Q.** `O=C(Nc1ccc2cn[nH]c2c1)c1ccc(-c2ncccc2Cl)cc1` [Compound 273] was tested. Which “% Inhibition @ 1 uM” value did it give?
**A.** + + (“+ +” compound exhibited 25-50% inhibition of calcium ion influx induced by capsaicin stimulation.)

**Q.** Which “% Inhibition @ 1 uM” value does the source give for `CCCOc1ccc(NC(=O)c2ccc(-c3ncccc3Cl)cc2)cc1` [Compound 274] here?
**A.** + (“+” compound exhibited 0-25% inhibition of calcium ion influx induced by capsaicin stimulation.)

**Q.** For `O=C(Nc1ccc(OC(F)(F)F)cc1)c1ccc(-c2ncccc2Cl)cc1` [Compound 276], which “% Inhibition @ 1 uM” value is on record?
**A.** + (“+” compound exhibited 0-25% inhibition of calcium ion influx induced by capsaicin stimulation.)
